Source: publication PMC6328587 (Nature Communications, 2019)
Like-named read-outs stand apart in the source and are kept apart here.

Tests used:
p38α = target: T1, p38α (Homo sapiens, UniProt Q16539); test: PROTAC-induced p38α degradation, western blot in MDA-MB-231 cells; format: cell-based
T1 construct: SJFα PROTAC (13-atom linker, amide attachment) selectively degrades p38α; endogenous in cells; host or cells: MDA-MB-231
Experimental: MDA-MB-231 and HeLa cells were obtained from the American Type Culture Collection (ATCC), cultured in RPMI-1640 medium (1 × ) and Dulbecco’s modified Eagle’s medium (DMEM; 1 × ), respectively, containing 10% fetal bovine serum and 1% penicillin–streptomycin and grown in a humidified incubator at 37 °C and 5% CO2.
(§1) […] once with ice-cold PBS (1 × ), followed by lysis in buffer containing 25 mM Tris [pH 7.5], 0.25% sodium deoxycholate, 1% Triton X-100, supplemented with 1X protease inhibitor cocktail (Roche), and phosphatase inhibitors (10 mM NaF, 1 mM Na3VO4, and 20 mM β-glycerophosphate), unless otherwise noted. Lysates were spun at 14,000 × g for 10 min at 4 °C and supernatant was evaluated for protein content using a Pierce BCA Protein Assay (ThermoFisher Scientific). In all experiments, 25–50 μg of protein was loaded onto 10% SDS-PAGE gels or 4–20% Criterion TGX precast gradient gels (Bio-Rad), transferred to nitrocellulose membranes, and probed with the specified antibodies overnight at 4 °C in 1X TBS-Tween (Tris-buffered saline plus 0.02% Tween 20) containing 5% non-fat milk. Immunoblots were visualized using a Bio-Rad ChemiDoc imaging instrument and subsequently processed and quantified using the accompanying Bio-Rad ImageLab software. See Supplementary Figure 8 for uncropped scans of western blots shown in the main text figures.
Western blot data in Figs. 2, 6, and Supplementary Figures 2, 3 were quantified by using the band feature in Image Lab (Bio-Rad). The p38 values were normalized to the α-tubulin signal to account for differences in protein load, and PROTAC-treated normalized values were expressed as a % of the vehicle-treated (no PROTAC) value, which itself was defined as 100% p38 protein level. […] The sigmoidal fit established both the full extent of degradation, or Dmax at the bottom asymptote of the curve, as well as the DC50, which is the inflection point at which 50% of the total degradation observed was reached.

p38γ = target: T2, p38γ (Homo sapiens, UniProt P53778); test: p38γ degradation, western blot in MDA-MB-231 cells; format: cell-based; details: concentrations up to 2.5 µM
T2 construct: endogenous in cells; host or cells: MDA-MB-231
T2 sequence (P53778 1-367): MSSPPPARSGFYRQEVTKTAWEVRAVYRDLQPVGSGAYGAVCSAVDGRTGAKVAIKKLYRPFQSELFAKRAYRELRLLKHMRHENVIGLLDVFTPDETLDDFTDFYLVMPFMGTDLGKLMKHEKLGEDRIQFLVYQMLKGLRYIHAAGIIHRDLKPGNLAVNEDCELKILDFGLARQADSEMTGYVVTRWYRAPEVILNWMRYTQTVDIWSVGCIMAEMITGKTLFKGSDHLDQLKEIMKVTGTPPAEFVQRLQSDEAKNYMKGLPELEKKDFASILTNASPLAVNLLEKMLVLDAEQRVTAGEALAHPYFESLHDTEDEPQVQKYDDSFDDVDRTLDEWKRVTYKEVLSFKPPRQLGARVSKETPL
Experimental: as §1
Supplementary Figure 4 cont.
Supplementary Figure 4. Characterization of M APK fam ily degradation selectivity (related to Figures 1-2). (a) p38 M APK fam ily m em bers (α, β, δ, γ) were aligned using the T-Coffee multiple sequence alignm ent server. […] Note: JNK1 and JNK2 are expressed as two alternatively-spliced form s. […]

[1] = target: T3, p38δ:PROTAC:VHL ternary complex (Homo sapiens, UniProt O15264+P40337); test: In vitro ternary complex pull-down, GST-VBC bait, purified p38δ; format: binding; details: dose-dependent
T3 construct: encoding a region spanning amino acids 1–365; His6 (N); made in house; host or cells: E. coli BL21-CodonPlus(DE3)-RIPL (p38δ); E. coli BL21(DE3) (GST-VBC)
T3 sequence (O15264 whole entry, the tested form may be a part): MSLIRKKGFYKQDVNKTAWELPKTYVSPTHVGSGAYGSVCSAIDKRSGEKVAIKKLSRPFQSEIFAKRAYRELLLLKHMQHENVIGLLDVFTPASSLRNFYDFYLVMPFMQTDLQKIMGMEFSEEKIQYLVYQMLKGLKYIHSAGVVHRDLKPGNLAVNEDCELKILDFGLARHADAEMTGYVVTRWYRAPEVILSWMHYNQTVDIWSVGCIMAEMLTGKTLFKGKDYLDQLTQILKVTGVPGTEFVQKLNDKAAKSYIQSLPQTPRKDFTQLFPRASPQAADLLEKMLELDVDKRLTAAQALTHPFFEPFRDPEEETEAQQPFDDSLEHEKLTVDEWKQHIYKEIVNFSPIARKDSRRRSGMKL
T3 sequence (P40337 whole entry, the tested form may be a part): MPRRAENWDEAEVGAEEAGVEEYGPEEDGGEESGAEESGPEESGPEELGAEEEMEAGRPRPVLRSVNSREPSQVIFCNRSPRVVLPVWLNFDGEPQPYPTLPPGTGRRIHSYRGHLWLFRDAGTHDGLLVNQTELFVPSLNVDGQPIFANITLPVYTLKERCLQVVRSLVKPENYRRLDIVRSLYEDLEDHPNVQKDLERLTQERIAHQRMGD
T3 sequence (Q15370 whole entry partner, the tested form may be a part): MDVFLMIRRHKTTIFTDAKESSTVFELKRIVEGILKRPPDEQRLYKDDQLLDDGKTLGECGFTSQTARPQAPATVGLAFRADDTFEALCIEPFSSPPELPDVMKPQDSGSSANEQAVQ
T3 sequence (Q15369 whole entry partner, the tested form may be a part): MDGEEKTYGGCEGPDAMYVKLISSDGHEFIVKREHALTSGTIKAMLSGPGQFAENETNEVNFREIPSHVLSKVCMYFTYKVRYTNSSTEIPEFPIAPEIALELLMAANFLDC
Experimental: Glutathione Sepharose 4B (Glutathione-conjugated beads in a slurry containing 20% ethanol) were washed twice with 1X wash buffer (50 mM HEPES pH 7.5, 150 mM NaCl, 1 mM DTT, 0.01% NP40, 5 mM MgCl2, 10% Glycerol) and then blocked for 1 h at room temperature with 10% bovine serum albumin (BSA) in wash buffer. The beads were then washed again three times with wash buffer and then purified GST-VBC (stable form of VHL complexed with EloB/EloC, described above) was immobilized for 1 h at 4 °C at 3.6 pmole µL^–1 of beads. The beads were then washed three times with wash buffer, resuspended, divided into two equal volumes, and p38α or p38δ protein was added. The bead:p38 mixture was then aliquoted to separate tubes and PROTAC was added at the indicated concentration (PROTACs were intermediately diluted in 10% DMSO and 0.25% CHAPS). This mixture was incubated at 4 °C for 2 h. The beads were washed three times with 10 column volumes of wash buffer and then eluted with SDS loading buffer at 75 °C for 10 min.

[2] = 0.025-5.0 µM survey, biological duplicates, ± one s.d., Supplementary Table 1
[3] = 0.025-5.0 µM survey, ± one s.d., Supplementary Table 1, read-out: Dmax p38α (maximum percentage of degradation)

T1 sequence (Q16539 whole entry): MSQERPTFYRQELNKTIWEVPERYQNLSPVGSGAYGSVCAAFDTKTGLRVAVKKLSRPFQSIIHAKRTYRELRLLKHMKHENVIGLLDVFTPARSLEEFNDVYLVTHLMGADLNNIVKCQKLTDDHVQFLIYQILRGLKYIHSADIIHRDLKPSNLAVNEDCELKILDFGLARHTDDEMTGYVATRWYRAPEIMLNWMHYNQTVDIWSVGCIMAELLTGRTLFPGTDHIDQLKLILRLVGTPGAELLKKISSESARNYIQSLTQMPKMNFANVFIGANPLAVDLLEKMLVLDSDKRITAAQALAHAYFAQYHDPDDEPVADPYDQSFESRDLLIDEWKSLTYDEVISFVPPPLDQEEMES

Row | Structure (SMILES) | p38α degradation (in words) (p38α) | DC50 (p38α; [2]) [nM] | Dmax (p38α; [3]) [%] | p38γ degradation (p38γ) | pull-down of purified p38δ on GST-VBC-coated beads [1] | p38α downregulation after pre-treatment with 1 µM epoxomicin or 1 µM MLN4924 (p38α; 250 nM PROTAC, 6 h) | hook effect in p38α degradation (p38α; up to 100 µM) | DC50 (p38α; wider dose response 1 nM-100 µM, Supplementary Figure 3) [nM] | Dmax (p38α; wider dose response 1 nM-100 µM, Supplementary Figure 3, read-out: Dmax p38α) [%]
1 | COc1cc2c(Oc3ccc(NC(=O)C4(C(=O)Nc5ccc(F)cc5)CC4)cc3F)ccnc2cc1OCCOCCOCCOc1cc(-c2scnc2C)ccc1CNC(=O)[C@@H]1C[C@@H](O)CN1C(=O)[C@H](C(C)C)N1Cc2ccccc2C1=O [SJFδ] | does not degrade | 45.9 ± 81.3 | 34.5 ± 10.1 | does not degrade | can pull-down purified p38δ |  |  |  | 
2 | COc1cc2c(Oc3ccc(NC(=O)C4(C(=O)Nc5ccc(F)cc5)CC4)cc3F)ccnc2cc1OCCCCOCCCCOCC(=O)N[C@H](C(=O)N1C[C@H](O)C[C@H]1C(=O)NCc1ccc(-c2scnc2C)cc1)C(C)(C)C [SJFα] |  | 9.5 ± 1 | 99.6 ± 1.1 | does not degrade | can pull-down purified p38δ | completely rescued | no hook effect | 7.16 ± 1.03 | 97.4
